From article PMC5698418 (Nature Communications, 2017)
Structures can show the parent of a compound that is named as a salt. Where two headings read alike, the source gives them in different places. Non-standard residues stand in square brackets, D forms with d. Residues, ends and D or L forms follow the SMILES beside them. αMeP = C[C@@]1(C(=O)O)CCCN1

System: BDNF-induced nuclear Arc expression in primary cortical neurons
Assay: Chemogenomic screen: high-content image-based assay of BDNF-induced nuclear Arc expression (96-well)
Type: cell-based, mouse
Outline: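 DIV13 mouse primary cortical neurons (30,000 cells/well) are treated with compound at 16.7 µM and BDNF, in three biological replicates. Arc and acetyl-H3K9 are immunostained and imaged at ×40, and nuclear Arc signal is quantified automatically using acetyl-H3K9 as the nuclear mask.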

[1] = chemogenomic (SMART) screen, BDNF-induced nuclear Arc expression, primary cortical neurons, BDNF control 19.5
[2] = nuclear Arc-positive cells relative to DMSO + BDNF control, negative values = decrease
[3] = BDNF-induced nuclear Arc expression, primary cortical neurons, chemogenomic screen
[4] = nuclear Arc-positive cells relative to DMSO control (BDNF), negative = decrease

| SMILES | Percentage of cell with nuclear Arc immunostaining above 2σ threshold [1] | Fold-change — Normalized to DMSO control (BDNF) [2] | further results |
| --- | --- | --- | --- |
| C[C@H](NCc1ccc(OCc2cccc(F)c2)cc1)C(N)=O [Safinamide] | 25.5% | 1.3 fold | – |
| CC(C)CC(N(C)C)C1(c2ccc(Cl)cc2)CCC1 (centres unmarked) [Sibutramine] | – | 1.1 fold | Percentage of cell with nuclear Arc immunostaining above 2σ threshold: 21.3% |
| O=C(CCNNC(=O)c1ccncc1)NCc1ccccc1 [Nialamide] | 29.9% | 1.5 fold | – |
| Cc1cc(C(=O)NNCc2ccccc2)no1 [Isocarboxazid] | 21.2% | 1.1 fold | – |
| O=C1CC2(CCCC2)CC(=O)N1CCCCN1CCN(c2ncccn2)CC1 [Buspirone] | – | – | Percentage of cell with nuclear Arc immunostaining above 2σ threshold [3]: 10.3% |
| Cc1c(-c2ccccc2)oc2c(C(=O)OCCN3CCCCC3)cccc2c1=O [Flavoxate] | – | – | Percentage of cell with nuclear Arc immunostaining above 2σ threshold [3]: 3.1% |
| CCN[C@H]1C[C@H](C)S(=O)(=O)c2sc(S(N)(=O)=O)cc21 [Dorzolamide] | – | – | Percentage of cell with nuclear Arc immunostaining above 2σ threshold [3]: 7.1% |
| Cn1c(=O)c2c(ncn2CC(O)CO)n(C)c1=O (centres unmarked) [Dyphylline] | 17.0% | – | – |
| CCN1CCCC1CNC(=O)c1cc(S(N)(=O)=O)ccc1OC (centres unmarked) [Sulpiride] | 26.5% | 1.4 fold | – |
| CCCN(CCC)CCc1cccc2c1CC(=O)N2 [Ropinirole] | 14.2% | – | – |
| COc1cc(C(C)=O)ccc1OCCCN1CCC(c2noc3cc(F)ccc23)CC1 [Iloperidone] | – | – | Percentage of cell with nuclear Arc immunostaining above 2σ threshold [3]: 8.3% |
| CC1=NN=C(c2ccc(N)cc2)c2cc3c(cc2C1)OCO3 [GYKI-52466] | 12.0% | – | – |
| Cc1ccsc1C(=CCCN1CCC[C@@H](C(=O)O)C1)c1sccc1C [Tiagabine] | – | – | Percentage of cell with nuclear Arc immunostaining above 2σ threshold [3]: 7.4% |
| Cc1nc(C(=O)NCC(=O)O)c(O)c2ccc(Oc3ccccc3)cc12 [FG-4592] | 26.8% | 1.4 fold | – |
| CC(C)(C)OC(=O)c1ncn2c1[C@@H]1CCCN1C(=O)c1c(Br)cccc1-2 [Bretazenil] | – | 2.0 fold | Percentage of cell with nuclear Arc immunostaining above 2σ threshold: 39.0% |
| CN(C)CCCN1c2ccccc2Sc2ccccc21 [Promazine] | – | – | Percentage of cell with nuclear Arc immunostaining above 2σ threshold [3]: 9.7% |
| Cc1ccc(C23CNCC2C3)cc1 (centres unmarked) [Bicifadine] | – | – | Percentage of cell with nuclear Arc immunostaining above 2σ threshold [3]: 7.2% |
| C#CCN[C@@H]1CCc2ccccc21 [Rasagiline] | 14.8% | – | – |
| CCN(CC)C(=O)C1(c2ccccc2)CC1CN (centres unmarked) [Milnacipran] | 13.2% | – | – |

| SMILES | Percentage of cell with nuclear Arc immunostaining above 2σ threshold [1] | Fold-change — Normalized to DMSO control (BDNF) [2] | further results |
| --- | --- | --- | --- |
| CN1C[C@H](C(=O)N[C@]2(C)O[C@@]3(O)[C@@H]4CCCN4C(=O)[C@H](Cc4ccccc4)N3C2=O)C[C@@H]2c3cccc4[nH]cc(c34)C[C@H]21.CN1C[C@H](C(=O)N[C@]2(C)O[C@@]3(O)[C@@H]4CCCN4C(=O)[C@H](Cc4ccccc4)N3C2=O)C[C@@H]2c3cccc4[nH]cc(c34)C[C@H]21.O=C(O)C(O)C(O)C(=O)O [Dihydroergotamine tartrate] | 22.0% | 1.1 fold | – |
| CN1[C@@H]2CC[C@H]1C[C@@H](OC(=O)c1c[nH]c3ccccc13)C2 [Tropisetron] | 28.5% | 1.5 fold | – |
| O=C(O)C(O)C(O)C(=O)O.c1cnc2cc3c(cc2n1)[C@@H]1CNC[C@H]3C1 [Chantix] | – | – | Percentage of cell with nuclear Arc immunostaining above 2σ threshold [3]: 10.1%; Fold-change — Normalized to DMSO control (BDNF) [4]: -1.9 fold |
| CN(C)CC/C=C1\c2ccccc2CSc2ccccc21 [Dosulepin] | 16.7% | – | – |
| CNC(=O)Oc1ccc2c(c1)[C@]1(C)CCN(C)[C@@H]1N2C [Physostigmine] | – | – | Percentage of cell with nuclear Arc immunostaining above 2σ threshold: 18.3% |
| CN1CCN(CCCN2c3ccccc3Sc3ccc(Cl)cc32)CC1 [Prochlorperazine] | – | – | Percentage of cell with nuclear Arc immunostaining above 2σ threshold [3]: 0.375% |
| CC#C[C@]1(O)CC[C@H]2[C@@H]3CCC4=CC(=O)CCC4=C3[C@@H](c3ccc(N(C)C)cc3)C[C@@]21C [Mifepristone] | 43.7% | 2.2 fold | – |
| Cc1cc2c(s1)Nc1ccccc1N=C2N1CCN(C)CC1 [Olanzapine] | – | – | Percentage of cell with nuclear Arc immunostaining above 2σ threshold: 19.4% |
| NC(=O)CCC/N=C(\c1ccc(Cl)cc1)c1cc(F)ccc1O [Progabide] | 19.5% | 1.0 fold | – |
| NC(=O)C1=CN([C@@H]2O[C@H](COP(=O)(O)OP(=O)(O)OC[C@H]3O[C@@H](n4cnc5c(N)ncnc54)[C@H](O)[C@@H]3O)[C@@H](O)[C@H]2O)C=CC1 [NADH] | 25.0% | 1.3 fold | – |
| COC1=CC(=O)O[C@@H](/C=C/c2ccccc2)C1 [Kavain] | – | 1.8 fold | Percentage of cell with nuclear Arc immunostaining above 2σ threshold: 34.3% |
| CNS(=O)(=O)Cc1ccc2[nH]cc(CCN(C)C)c2c1 [Sumatriptan succinate] | 23.4% | 1.2 fold | – |
| C[C@@]1(C(=O)N[C@@H](CCC(=O)O)C(=O)O)CCCN1C(=O)CN [NNZ-2566] (H-Gly-[αMeP]-Glu-OH) | – | – | Percentage of cell with nuclear Arc immunostaining above 2σ threshold [3]: 6.7%; Fold-change — Normalized to DMSO control (BDNF) [4]: -2.9 fold |
| CN1CC(=O)NC1=O [1-Methylhydantoin] | 31.8% | 1.6 fold | – |
| NCC(CC(=O)O)c1ccc(Cl)cc1 (centres unmarked) [Baclofen] | 28.6% | 1.5 fold | – |
| O=C(O)c1ccc(O)c2ncccc12 [IOX1] | 44.2% | 2.3 fold | – |
| COC1=CC(=O)O[C@@H](/C=C/c2ccc3c(c2)OCO3)C1 [Kavahin] | – | 1.9 fold | Percentage of cell with nuclear Arc immunostaining above 2σ threshold: 36.5% |
| COc1ccc2c(c1)[C@]13CCCC[C@@H]1[C@H](C2)N(C)CC3 [Dextromethorphan] | 19.7% | 1.0 fold | – |
| OC(CCN1CCCCC1)(c1ccccc1)C1CCCCC1 (centres unmarked) [Benzhexol hydrochloride] | 20.4% | 1.0 fold | – |

| SMILES | Percentage of cell with nuclear Arc immunostaining above 2σ threshold [1] | Fold-change — Normalized to DMSO control (BDNF) [2] | further results |
| --- | --- | --- | --- |
| O=c1cc(-c2ccc(O)c(O)c2)oc2cc(O)cc(O)c12 [Luteolin] | 22.1% | 1.1 fold | – |
| CN(C)CCc1c[nH]c2ccc(C[C@H]3COC(=O)N3)cc12 [Zolmitriptan] | 42.5% | 2.2 fold | – |
| COc1cc2c(NC3CCN(C)CC3)nc(N3CCCN(C)CC3)nc2cc1OCCCN(C)C [UNC 0224] | 40.5% | 2.1 fold | – |
| CCN1CCCC1CNC(=O)c1cc(S(=O)(=O)CC)c(N)cc1OC (centres unmarked) [Amisulpride] | 24.6% | 1.3 fold | – |
| OCCOCCN1CCN(C2=Nc3ccccc3Sc3ccccc32)CC1 [Quetiapine fumarate] | 25.9% | 1.3 fold | – |
| CCCn1cnc2c1c(=O)n(CCCCC(C)=O)c(=O)n2C [Propentofylline] | 33.4% | 1.7 fold | – |
| N=C(N)NC(=O)Cc1c(Cl)cccc1Cl [Guanfacine hydrochloride] | 20.9% | 1.1 fold | – |
| CN(C)CCC=C1c2ccccc2CCc2ccccc21 [Amitriptyline] | 12.3% | – | – |
| CN(C)CC/C=C1/c2ccccc2Sc2ccc(Cl)cc21 [Chlorprothixene] | – | – | Percentage of cell with nuclear Arc immunostaining above 2σ threshold [3]: 1.0% |
| OC(CCN1CCCCC1)(c1ccccc1)C1CC2C=CC1C2 (centres unmarked) [Biperiden] | 13.3% | – | – |
| CC(C)n1c(=O)n(C(=O)NC2CC3CCC(C2)N3C)c2ccccc21 (centres unmarked) [BIMU-8] | – | -1.2 fold | Percentage of cell with nuclear Arc immunostaining above 2σ threshold: 16.3% |
| O=C(O)c1cccc(-c2noc(-c3ccccc3F)n2)c1 [Ataluren] | 38.6% | 2.0 fold | – |
| O=C1[C@@H]2[C@H]3CC[C@H](C3)[C@@H]2C(=O)N1C[C@@H]1CCCC[C@H]1CN1CCN(c2nsc3ccccc23)CC1 [Lurasidone] | 39.0% | 2.0 fold | – |
| CCN(CC)CCOC(=O)c1ccc(N)cc1 [Procaine hydrochloride] | 37.1% | 1.9 fold | – |
| C1CCN2C[C@@H]3C[C@@H](CN4CCCC[C@@H]34)[C@H]2C1 [Sparteine] | – | 1.3 fold | Percentage of cell with nuclear Arc immunostaining above 2σ threshold: 25.6% |
| CCOc1ccc2nc(S(N)(=O)=O)sc2c1 [Ethoxzolamide] | – | – | Percentage of cell with nuclear Arc immunostaining above 2σ threshold [3]: 8.4% |
| O=c1c(O)c(-c2ccc(O)c(O)c2)oc2cc(O)cc(O)c12 [Sophoretin] | – | – | Percentage of cell with nuclear Arc immunostaining above 2σ threshold [3]: 9.3% |
| CN(C)CC(c1ccc(O)cc1)C1(O)CCCCC1 (centres unmarked) [Desvenlafaxine] | 33.0% | 1.7 fold | – |
| CCC1(c2ccccc2)C(=O)NCNC1=O [Primidone] | 17.3% | – | – |
